target: GST tagged truncated human mutant G2019S LRRK2 (Homo sapiens (Human), UniProt Q5S007, G2019S); experiment: LRRK2 Km ATP LanthaScreen Assay; assay type: biochemical; settings: G2019S LRRK2, 134 μM ATP (Km ATP), mean values
Procedure, shortened: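 Enzyme (GST-tagged, truncated) was preincubated with compound for 15 min at RT in 50 mM Tris pH 8.5, 10 mM MgCl2, 0.01% Brij-35, 1 mM EGTA, 2 mM DTT and 0.05 mM orthovanadate. Fluorescein-LRRKtide and 134 μM ATP (Km) were then added for 90 min. EDTA and Tb-anti-pERM antibody stopped the reaction; the TR-FRET 520/495 ratio gave 4-parameter IC50s, reported as mean pIC50.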

GST tagged truncated human mutant G2019S LRRK2, sequence (Q5S007 970-2527 G2019S): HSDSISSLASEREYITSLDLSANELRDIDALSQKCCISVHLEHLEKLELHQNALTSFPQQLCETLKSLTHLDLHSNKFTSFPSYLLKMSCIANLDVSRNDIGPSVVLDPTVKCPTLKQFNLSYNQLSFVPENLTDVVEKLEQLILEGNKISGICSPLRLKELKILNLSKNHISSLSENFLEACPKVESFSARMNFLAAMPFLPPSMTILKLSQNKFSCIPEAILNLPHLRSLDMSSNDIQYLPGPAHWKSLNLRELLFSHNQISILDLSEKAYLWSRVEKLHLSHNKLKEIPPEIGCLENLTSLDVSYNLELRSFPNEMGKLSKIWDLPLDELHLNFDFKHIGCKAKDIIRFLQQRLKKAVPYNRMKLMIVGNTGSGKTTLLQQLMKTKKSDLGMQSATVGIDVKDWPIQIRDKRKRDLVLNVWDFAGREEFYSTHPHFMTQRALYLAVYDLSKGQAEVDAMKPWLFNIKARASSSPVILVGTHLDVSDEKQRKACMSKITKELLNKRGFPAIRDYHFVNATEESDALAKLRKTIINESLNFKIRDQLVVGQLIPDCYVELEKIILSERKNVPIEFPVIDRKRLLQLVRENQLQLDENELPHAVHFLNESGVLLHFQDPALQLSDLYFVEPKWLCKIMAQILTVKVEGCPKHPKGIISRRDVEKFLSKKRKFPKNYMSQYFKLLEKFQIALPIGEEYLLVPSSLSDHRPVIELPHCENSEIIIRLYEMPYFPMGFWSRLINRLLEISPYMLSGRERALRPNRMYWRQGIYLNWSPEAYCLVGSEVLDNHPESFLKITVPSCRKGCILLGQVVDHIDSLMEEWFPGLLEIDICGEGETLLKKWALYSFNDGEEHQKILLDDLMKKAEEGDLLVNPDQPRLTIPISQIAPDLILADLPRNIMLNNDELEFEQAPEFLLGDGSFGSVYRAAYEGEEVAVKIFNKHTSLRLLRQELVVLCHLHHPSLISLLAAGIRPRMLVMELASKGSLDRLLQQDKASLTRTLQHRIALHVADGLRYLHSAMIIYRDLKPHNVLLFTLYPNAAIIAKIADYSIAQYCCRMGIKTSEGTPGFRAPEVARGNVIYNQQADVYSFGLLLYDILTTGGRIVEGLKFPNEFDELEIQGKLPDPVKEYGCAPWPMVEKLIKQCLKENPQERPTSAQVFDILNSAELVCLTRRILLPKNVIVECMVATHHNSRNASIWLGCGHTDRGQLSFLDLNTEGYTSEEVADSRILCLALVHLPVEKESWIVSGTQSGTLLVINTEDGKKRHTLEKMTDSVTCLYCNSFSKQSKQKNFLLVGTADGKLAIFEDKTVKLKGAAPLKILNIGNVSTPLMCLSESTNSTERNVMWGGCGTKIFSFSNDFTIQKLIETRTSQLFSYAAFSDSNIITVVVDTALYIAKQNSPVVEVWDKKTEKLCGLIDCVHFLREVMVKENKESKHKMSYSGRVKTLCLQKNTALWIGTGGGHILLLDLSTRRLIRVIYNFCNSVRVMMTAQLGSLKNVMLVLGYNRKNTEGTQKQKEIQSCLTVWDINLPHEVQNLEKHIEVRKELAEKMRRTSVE

Row | SMILES | LRRK2 pIC50
1 | Cc1c(Nc2ncc3cc(Cl)c(C4CCN([C@H]5COC[C@H]5O)CC4)cc3n2)cnn1C1CC1(F)F (single isomer, unassigned) [Ex-4.183, (R)(3S,4S) or (S)(3S,4S) or (R)(3R,4R) or (S)(3R,4R) 4-[4-(6-chloro-2-{[1-(2,2-difluorocyclopropyl)-5-methyl-1H-pyrazol-4-yl]amino}quinazolin-7-yl)piperidin-1-yl]oxolan-3-ol] | >9.20
2 | CC(C)(O)Cn1ncc(Nc2ncc3cc(Cl)c([C@@H]4CCN(C5(C)COC5)C[C@H]4F)cc3n2)c1Cl (single isomer, unassigned) [Ex-2.1, (3S,4S) or (3R,4R) 1-(5-chloro-4-((6-chloro-7-(3-fluoro-1-(3-methyloxetan-3-yl)piperidin-4-yl)quinazolin-2-yl)amino)-1H-pyrazol-1-yl)-2-methylpropan-2-ol] | 8.79
3 | N#Cc1cc2cnc(Nc3cnn(C4CC4)c3Cl)nc2cc1[C@H]1CCN(C2COC2)C[C@@H]1F (single isomer, unassigned) [Ex-6.2, (3R,4R) or (3S,4S) 2-((5-chloro-1-cyclopropyl-1H-pyrazol-4-yl)amino)-7-(3-fluoro-1-(oxetan-3-yl)piperidin-4-yl)quinazoline-6-carbonitrile] | >9.20
4 | Cc1c(Nc2ncc3cc(Cl)c(C4CCN(CC5(O)CCC5)CC4)cc3n2)cnn1C1CC1 [Ex-4.215, 1-[(4-{6-chloro-2-[(1-cyclopropyl-5-methyl-1H-pyrazol-4-yl)amino]quinazolin-7-yl}piperidin-1-yl)methyl]cyclobutan-1-ol] | 8.57
5 | Cc1c(Nc2ncc3cc(Cl)c([C@H]4CCN(C5COC5)C[C@@H]4F)cc3n2)cnn1CC(C)(C)O (single isomer, unassigned) [Ex-4.64, (3S,4S) or (3R,4R) 1-[4-({6-chloro-7-[3-fluoro-1-(oxetan-3-yl)piperidin-4-yl]quinazolin-2-yl}amino)-5-methyl-1H-pyrazol-1-yl]-2-methylpropan-2-ol] | 8.85
6 | F[C@@H]1CN(C2COC2)CC[C@H]1c1cc2nc(Nc3cnn(C4CC4(F)F)c3Cl)ncc2cc1Cl (single isomer, unassigned) [Ex-8.29, (R)(3S,4S) or (S)(3S,4S) or (R)(3R,4R) or (S)(3R,4R) 6-chloro-N-[5-chloro-1-(2,2-difluorocyclopropyl)-1H-pyrazol-4-yl]-7-[3-fluoro-1-(oxetan-3-yl)piperidin-4-yl]quinazolin-2-amine] | 8.88
7 | N#CC1CCC(N2CC[C@@H](c3cc4nc(Nc5cnn(C6CC6)c5Cl)ncc4cc3Cl)[C@H](F)C2)C1 (single isomer, unassigned) [Ex-4.110, (1R,3S)-3-((3S,4S) or (1S,3R)-3-((3S,4S) or (1R,3R)-3-((3S,4S) or (1S,3S)-3-((3S,4S) or (1R,3S)-3-((3R,4R) or (1S,3R)-3-((3R,4R) or (1R,3R)-3-((3R,4R) or 1S,3S)-3-((3R,4R) 4-(6-chloro-2-((5-chloro-1-cyclopropyl-1H-pyrazol-4-yl)amino)quinazolin-7-yl)-3-fluoropiperidin-1-yl)cyclopentane-1-carbonitrile] | 8.73
8 | Cc1cc2cnc(Nc3cnn(C4CC4(F)F)c3C)nc2cc1[C@@H]1CCN(C2COCC2F)C[C@H]1F (single isomer, unassigned) [Ex-7.6] | >9.20
9 | CCN1CCC(c2cc3nc(Nc4cnn(CC(C)(C)O)c4Cl)ncc3cc2Cl)CC1 [Ex-4.97, 1-(5-chloro-4-{[6-chloro-7-(1-ethylpiperidin-4-yl)quinazolin-2-yl]amino}-1H-pyrazol-1-yl)-2-methylpropan-2-ol] | 8.57

same assay, conditions: G2019S LRRK2, 134 μM ATP (Km ATP), mean values; read-out: LRRK2 pIC50 (converted)

Row | SMILES | IC50 [nM]
10 | Cn1nc(Cl)cc1Nc1ncc2cc(Cl)c(C3CCN([C@@]4(C)COC[C@H]4O)CC3)cc2n1 (single isomer, unassigned) [Ex-10.1, (3S,4S) or (3R,4R) 4-(4-(6-chloro-2-((3-chloro-1-methyl-1H-pyrazol-5-yl)amino)quinazolin-7-yl)piperidin-1-yl)-4-methyltetrahydrofuran-3-ol] | 0.776

Reference: US12540131B2 (Merck Sharp & Dohme LLC, priority 2019, dated 2026)
